Several values for one entry are separate records, joined by “and”; a condition that tells them apart may be missing. Equal values may be shown once. Positions of bridges follow the written chain, without caps; N, C: chain ends. No end group written: not given here.

Series [1] can be described thus: dynamic light scattering (DLS) particle size / self-association in solution. In kind it is physicochemical. Particulars: DLS number distribution, equilibrated 120 s, room temperature, Malvern Zetasizer, representative. The protocol: For verification, we subjected the four cryptdin peptides at 10 μM to dynamic light scattering (DLS) analysis in phosphate saline buffers at pH 7.4 and pH 3.0. […] However, the particle sizes of Crp1 and Crp11 shifted dramatically at the elevated pH, to ~200 nm and >1,000 nm, respectively, indicative of formation of high-ordered soluble aggregates in solution. These DLS data are in qualitative agreement with the SPR findings.
Of note, Cryp1 and Cryp11 are among the weakest cryptdins against E. coli and S. aureus, whereas Cryp4 and Cryp14 are potently bactericidal. This phenomenon raised an intriguing possibility that the ability of cryptdins to self-associate in solution could perhaps inform their antibacterial activity.
Dynamic light scattering (DLS) is a technique that can be used to measure the hydrodynamic diameter of proteins in solution. The principle of this technique lies in the fact that the apparent size of a protein molecule is inversely related to the speed at which it diffuses in a constant, random Brownian motion; size information can be derived mathematically through deconvolution algorithms once the rate at which the intensity of scattered laser light fluctuates as a function of time is determined by DLS ([93]). […]

The test system of another series is S. aureus ATCC 29213. The experiment in a line: virtual colony count (vCC) bactericidal assay, S. aureus. In kind it is cell-based, Staphylococcus aureus. The protocol:
(§1) All cryptdins were subjected to a virtual colony count assay (vCC) we have previously developed ([67]), in which E. coli ATCC 25922 and S. aureus ATCC 29213 are exposed to a 2-fold serial dilution of cryptdin for 2 h in 10 mM sodium phosphate buffer (pH 7.4), before bacterial growth in the presence of Mueller-Hinton broth is monitored spectrophotometrically at 650 nm for a period of 12 h. The dose-dependent killing of E. coli and S. aureus by all 17 cryptdins is shown as bacterial survival curves in Fig. 6. The virtual lethal doses (vLDs) of cryptdins at 50%, 10%, 1% and 0.1% bacterial survival (or the vLD50, vLD90, vLD99, and vLD99.9 values) are tabulated in Table 1. The bactericidal activity of the Crp1 subclass of cryptdins is highly variable despite a high degree of sequence identity, with Crp1, Crp6, Crp11, and Crp16 being the weakest against both strains and Crp3, Crp8 to Crp10, Crp13, Crp14, and Crp17 being the strongest. The vLD50, vLD90, vLD99 and vLD99.9 values for Crp11 to E. coli differ from those for Crp14 by 3.4-, 7.0-, 11.8-, and 12.7-fold, respectively; for comparison, the vLD values for Crp11 to S. aureus are 3.1-, 5.0-, 6.8-, and 8.1-fold versus those for Crp10, respectively. Overall, S. aureus appears more susceptible to cryptdin killing than E. coli.
(§2) Antimicrobial assays against E. coli ATCC 25922 and S. aureus ATCC 29213 were conducted using a published 96-well turbidimetric method called “virtual colony count” ([67]). Briefly, a 2-fold dilution series of cryptdin, ranging from 1 to 256 μg/mL in 10 mM sodium phosphate (pH 7.4), was incubated at 37°C for 2 h with E. coli or S. aureus at 1 × 10^6 CFU/mL (a total volume of 100 μL), followed by the addition of 100 μL of twice-concentrated Mueller-Hinton broth (MHB). In addition to […] controls containing no cryptdin, a negative control termed “input” consisted of a portion of the same cell suspension kept on ice during the initial 2 h of incubation and added to the microplate just before addition of 100 μL of twice-concentrated MHB. Kinetic measurements of bacterial growth at 37°C were taken every 5 min over the next 12 h spectrophotometrically at 650 nm using a Tecan Spark plate reader. Data analysis utilized a Visual Basic script to automate the determination of the time necessary for each growth curve to reach a threshold change in optical density at 650 nm of 0.02 (ΔOD650), as previously described ([67]). Since the threshold times are inversely and linearly dependent on the logarithmic concentration of bacteria ([67]), survival data can be readily inferred from these calibration curves established in the absence of cryptdin. The rate of survival was calculated as the number of CFU of cryptdin-treated cells/number of CFU of control cells.

The test system of series [2] is same cryptdin peptide immobilized on a CM5 sensor chip. In words: surface plasmon resonance self-association of cryptdins. Type of series: binding, mouse. The following applies: 15.6-2,000 nM analyte over 400 to 500 RU of the same peptide on CM5 chip, 25°C, 10 mM HEPES, 150 mM NaCl, 3 mM EDTA, surfactant P20, pH 7.4; additional 150 mM NaCl for Crp1 and Crp11; Kd unattainable. The protocol: We examined Crp1, Crp4, Crp11, and Crp14 for their ability to self-associate at 25°C in 10 mM HEPES, 150 mM NaCl, 3 mM EDTA, 0.005% surfactant P20 (pH 7.4) using surface plasmon resonance (SPR) techniques. […] Due to the heterogenetic nature of defensin self-association and the lack of an appropriate mathematic model for data analysis, an accurate measurement of thermodynamic parameters such as Kd was unattainable.
FIG 10 Representative association and dissociation kinetics of cryptdins analyzed by surface plasmon resonance. Cryptdins in a 2-fold dilution series at concentrations ranging from 15.625 to 2000 nM were analyzed on self-immobilized sensor chips with resonance units (RUs) of 404 for Crp1 (A), 541 for Crp4 (B), 458 for Crp11 (C), 488 for Crp14 (D). To suppress nonspecific electrostatic interactions, an additional 150 mM NaCl was added to the running buffer for Crp1 and Crp11.
Surface plasmon resonance (SPR) experiments were performed, as described previously ([80]), on a BIAcore T200 system, at 25°C, in HBS-EP buffer (10 mM HEPES, 150 mM NaCl, 3 mM EDTA, […] surfactant P20 [pH 7.4]), with or without additional 150 mM NaCl. […] Analytes in a 2-fold dilution series at concentrations varying from 15.625 to 2,000 nM were injected into the flow cells at 30 μL/min in the running buffer, and association and dissociation assessed for 5 and 10 min, respectively. […]
(In general: Surface plasmon resonance follows binding to a sensor surface in real time, without labels.)

The subject of another series is E. coli ATCC 25922. The experiment in a line: virtual colony count (vCC) bactericidal assay, E. coli. Type of series: cell-based, Escherichia coli. The protocol:
as §1, §2

The mark [3] stands for this setting: virtual lethal dose killing 90% of input cells, 2 h at 37°C in 10 mM sodium phosphate pH 7.4, three independent assays.

Take “Crp1: mouse α-defensin cryptdin isoform 1, chemically synthesized and oxidatively folded, three disulfides (LRDLVCYCRSRGCKGRERMNGTCRKGHLLYTLCCR; disulfide 13-33, 8-23, 6-34; not fully specified; UniProt P11477 59-93, looked up)”: in series [1] (10 μM peptide in phosphate saline buffer pH 3.0, filtered 0.22 μm disc membrane), the “particle size in diameter by DLS, pH 3.0” value is “around 1 nm”. Further, the “particle size in diameter by DLS, pH 7.4” value in series [1] (10 μM peptide in phosphate saline buffer pH 7.4, filtered 0.22 μM disc membrane) is reported as ~ 200 nm. Besides, in the series with S. aureus ATCC 29213 (vCC survival curves, 2-fold dilution series, mean of triplicate experiments), the “concentration at which S. aureus was completely killed / growth eliminated” value is 32 µg/mL. In the series on S. aureus ATCC 29213 (virtual lethal dose killing 50% of input cells, 2 h at 37°C in 10 mM sodium phosphate pH 7.4, 1 × 10^6 CFU/mL, three independent assays), the “Mean vLD ± SD, S. aureus ATCC 29213, vLD50” value was determined as 3.9 ± 0.6 µg/mL. Also, the “Mean vLD ± SD, S. aureus ATCC 29213, vLD90” value in the series with S. aureus ATCC 29213 (setting [3]) was determined as 6.1 ± 0.5 µg/mL. For the same substance, the “Mean vLD ± SD, S. aureus ATCC 29213, vLD99” value in the series with S. aureus ATCC 29213 (virtual lethal dose killing 99% of input cells, 2 h at 37°C in 10 mM sodium phosphate pH 7.4, three independent assays) was determined as 9.1 ± 0.3 µg/mL. In addition, in the series on S. aureus ATCC 29213 (virtual lethal dose killing 99.9% of input cells, 2 h at 37°C in 10 mM sodium phosphate pH 7.4, three independent assays), the “Mean vLD ± SD, S. aureus ATCC 29213, vLD99.9” value was 11.9 µg/mL and 11.9 ± 0.5 µg/mL. Also, the “self-association/dissociation kinetics by SPR” value in series [2] was “slow association, followed by slow dissociation kinetics”. For the same substance, the “reduction of E. coli survival” value with E. coli ATCC 25922 (peptide at 256 μg/mL, vCC) is reported as 5 orders of magnitude. In addition, the “Mean vLD ± SD, E. coli ATCC 25922, vLD50” value in the series with E. coli ATCC 25922 (virtual lethal dose killing 50% of input cells, 2-fold dilutions 1-256 μg/mL, 2 h at 37°C in 10 mM sodium phosphate pH 7.4, 1 × 10^6 CFU/mL, then MHB growth 12 h read at 650 nm, three independent assays) came to 5.9 ± 0.3 µg/mL. Moreover, the “Mean vLD ± SD, E. coli ATCC 25922, vLD90” value with E. coli ATCC 25922 (setting [3]) was 13.4 ± 0.6 µg/mL. In addition, the “Mean vLD ± SD, E. coli ATCC 25922, vLD99” value in the series on E. coli ATCC 25922 (virtual lethal dose killing 99% of input cells, 2 h at 37°C in 10 mM sodium phosphate pH 7.4, three independent assays, LOD = limit of detection) worked out at 25.4 ± 2.3 µg/mL. Also, the “Mean vLD ± SD, E. coli ATCC 25922, vLD99.9” value with E. coli ATCC 25922 (virtual lethal dose killing 99.9% of input cells, 2 h at 37°C in 10 mM sodium phosphate pH 7.4, three independent assays, LOD = limit of detection) came to 41.9 ± 4.8 µg/mL.

Source of the values: publication PMC9872612, “Mouse α-Defensins: Structural and Functional Analysis of the 17 Cryptdin Isoforms Identified from a Single Jejunal Crypt” (Infection and Immunity, 2022).
